According to PMC9331544, “Molecular Physicochemical Properties of Selected Pesticides as Predictive Factors for Oxidative Stress and Apoptosis-Dependent Cell Death in Caco-2 and HepG2 Cells” (International Journal of Molecular Sciences, 2022):
In brackets after ≈: the same amount, converted by molar mass. Where two headings read alike, the source gives them in different places.

Legend:
Caco-2 cells [1] = settings: for Caco-2 FL2/FL1 ratio: mean ± SD
Text: (§1) Given the role of mitochondria in both oxidative stress and cell death (apoptosis), we evaluated the mitochondrial membrane potential (MMP) using the JC-1 probe (see methods for details). This probe accumulates in the mitochondria in the form of J-aggregates when in normal mitochondrial conditions (polarized) and presents red fluorescence. By contrast, in unhealthy cells, when depolarization occurs, JC-1 enters the mitochondria in lower concentrations forming monomers inducing a fluorescence shift to green fluorescence, thus the loss of MMP is observed through flow cytometry as a reduction in red (FL2) and an increase in green (FL1) fluorescence, or as a reduction in red/green (FL2/FL1) fluorescence ratio [45, 46].
(§2) Pesticide-induced oxidative stress and apoptosis/necrosis events were analysed by flow cytometry. For this, one colour and two-colour flow cytometry assays were performed, using a BD Accuri™ C6 cytometer (Franklin Lakes, NJ, USA) equipment for data acquisition. Each assay was performed at least in triplicate (n = 3) and 5000 gated events were collected from each sample. Data analysis was performed using BD Accuri™ C6 Software, version 1.0.264.21 supplied by Becton Dickinson (Franklin Lakes, NJ, USA).
(§3) Caco-2 and HepG2 cells (handled as described in Section 3.2.1) were seeded in 12-well microplates (at 5 × 10^4 cells/mL density; 750 µL/well), and allowed to adhere and stabilize for 48 h in the incubator. […] Negative control cells (non-exposed cells) were included in each assay. After a 24 h incubation with test solutions, cells were washed with phosphate buffer saline (PBS) solution and then detached from the microplates (as in Section 3.2.1) and placed in centrifuge tubes and centrifuged (5 min, 3000 rpm, bench micro-centrifuge). After eliminating the supernatant, cells were washed in PBS solution through another centrifuge cycle. Then cells were divided before being incubated with the specific markers to assess oxidative stress markers and cell apoptosis/necrosis.
(§4) Mitochondrial membrane potential was analysed using JC-1 probe following the procedures as described by the manufacturer. Caco-2 and HepG2 cells suspended in PBS were centrifuged (5 min, 3000 rpm, bench micro-centrifuge), the supernatant was removed and 200 μL of JC-1 solution (2 μM; diluted in FBS-free culture media) was added to each sample. The samples were incubated for 20 min at 37 °C (in a CO2 incubator) and then analysed by flow cytometry. Negative control, non-exposed, and positive control cells exposed to the protonophore FCCP (5 μM; carbonyl cyanide p-trifluoromethoxyphenylhydrazone) were performed in each set of experiments.

HepG2 cells = settings: 24 h; for HepG2 FL2/FL1 ratio: mean ± SD
Text: as §1, §2, §3, §4

Caco-2 cells [2] = settings: Caco-2, 24 h, ref [34], cited from earlier work
[3] = ref [47],[48],[49],[50]; cited from earlier work

## C=CCOC(Cn1ccnc1)c1ccc(Cl)cc1Cl (stereo not drawn) [Imazalil, imazalil]
Caco-2 cells [1]; Caco-2, 50 μM, 24 h
  FL2/FL1 ratio reduction (% of control): 30.83±9.05 % of control
  Caco-2 FL2/FL1 ratio: 0.55±0.02
Caco-2 cells [1]; Caco-2, 75 μM, 24 h
  FL2/FL1 ratio reduced, relative to negative control: 1.54 times
  FL2/FL1 ratio reduction (% of control): 34.30±6.61 % of control
  Caco-2 FL2/FL1 ratio: 0.52±0.03
Caco-2 cells [1]; Caco-2, 75 μM, 24 h, listed as IMZ
  FL2/FL1 ratio reduction (% of control): ~ 34 % of control
Caco-2 cells [1]; Caco-2, 250 μM, 24 h
  FL2/FL1 ratio reduction (% of control): 96.08±0.47 % of control
  Caco-2 FL2/FL1 ratio: 0.03±0.01
Caco-2 cells [1]; Caco-2, 24 h, tested concentrations, listed as IMZ
  change in mitochondrial membrane potential (in words): induced high changes in Caco-2 MMP
HepG2 cells; HepG2, 25 μM
  FL2/FL1 ratio reduction (% of control): 56.22±16.07 % of control
  HepG2 FL2/FL1 ratio: 0.10±0.03
HepG2 cells; HepG2, 50 μM
  FL2/FL1 ratio reduction (% of control): 57.15±8.10 % of control
  HepG2 FL2/FL1 ratio: 0.10±0.02
HepG2 cells; HepG2, 75 μM
  FL2/FL1 ratio reduced, relative to negative control: 3.38 times
  FL2/FL1 ratio reduction (% of control): 72.95±0.28 % of control
  HepG2 FL2/FL1 ratio: 0.06±0.01
HepG2 cells; HepG2, 75 μM, listed as IMZ
  FL2/FL1 ratio reduction (% of control): ~ 73 % of control
Caco-2 cells [2]; converted value, read-out: IC50 (cytotoxicity)
  IC50: ~100 µM
Caco-2 cells [2]
  IC50 (cytotoxicity): 30 mg/L (≈ 101 µM)
[3]
  Partition Coefficient n-octanol/water (Log Pow): 4.56
  Water solubility: 1.4 mg/mL
